Assay results as given in patent US20090004106A1, “Radioligands for the 5 -Ht1b Receptor” (priority 2006, published 2009).

Test system: 5-HT1B receptor
Assay: PET measurements in monkeys (radioligand brain uptake and 5-HT1B receptor binding)
Type: in vivo, Cynomolgus monkey
Protocol: Cynomolgus monkey can be used to determine the suitability of [^11C] labeled raidoligands as a radioligand for PET-determination of 5HT^1B-receptor binding and occupancy. Anaesthesia can be induced and maintained by repeated intramuscular injections of a mixture of ketamine (3-4 mg/kg per h Ketalar, Parke-Davis) and xylazine hydrochloride (1-2 mg/kg per h Rompun® Vet., Bayer, Sweden) for the duration of each measurement. A fixation device can be used for the positioning of the monkey head during the PET-measurements. Body temperature can be controlled by Bair Hugger—Model 505 (Arizant Healthcare Inc, MN).
Radioactivity in the brain can be measured with the Siemens ECAT Exact HR47 system that can be used in the three-dimensional model. The system covers an axial distance of 15 cm. The transaxial resolution of the reconstructed images is about 3.8 mm full width at half-maximum (FWHM) and the axial resolution 4.0 mm FWHM. […]
In each PET-measurement a sterile physiological phosphate buffer (pH=7.4) solution containing about 1.4 mCi (50 MBq) of [^11C] labeled compound can be injected as a bolus into a sural vein during 2 s with simultaneous start of PET-data acquisition. Radioactivity in brain can be measured continuously for 93 minutes according to a pre-programmed series of 15 frames starting immediately after IV injection of [^11C] labeled compound. […]
During all PET measurements venous blood samples (about 0.5 ml) can be taken at 4 time points (at about 4, 15, 30 and 45 minutes) and plasma radioactivity concentration determined in a well counter, cross-calibrated with the camera. […]
The ROIs can be drawn on the PET summation images representing radioactivity measured from 9 minutes after intravenous injection to the end of the measurement. […] Radioactivity is calculated for the sequence of time frames, corrected for the radioactivity decay, and plotted versus time. For each region a time-activity curve can be generated and radioactivity expressed as nCi/ml. […]

For “[^11C] 8-(4-methylpiperazin-1-yl)-5-methylchrom-2-en-4-one-2-(4-morpholinophenyl)carboxamide) [Example 3]”, the “specific binding to the areas of interest” value (primate brain PET, non specific defined as cerebellum) was “binds specifically to the areas of interest”, the “specific to non-specific ratios” value (primate brain PET, ratio of ROI to cerebellum (non specific defined as cerebellum)) was “high enough specific to non-specific ratios” and the “entry of radioligand into brain” value (primate brain, PET, IV bolus of [11C] labeled compound) was “rapidly entered the primate brain”.
